Experiment [1] has as its system EC-104, Cy3-Cy5 dual-labeled (RNA, riboswitch, azido-uridine analog at 14) GUUCUCAACGGGGUGCCACGCGUACGCGUGCGCUGAGAAAAUACCCGUCGAACCUGAUCCGGAUAACGCCGGCGAAGGGAUUUGAGGCUCCUUCUCAAGUCCUU
Kind of experiment: smFRET. The following applies: 20 mM MgCl2, 20 mM NaCl; 1 mM TPP.

Experiment [2] relates to EC-83 nascent transcript (RNA, riboswitch) GUUCUCAACGGGGUGCCACGCGUACGCGUGCGCUGAGAAAAUACCCGUCGAACCUGAUCCGGAUAACGCCGGCGAAGGGAUUU
Kind of experiment: RNase H cleavage protection. The following applies: 20 mM MgCl2, 20 mM NaCl (transcription buffer); stalled at pause site 83; Kswitch plot Figure 2D.

The test system of experiment [3] is EC-117, Cy3-Cy5 dual-labeled (RNA, riboswitch, azido-uridine analog at 14) GUUCUCAACGGGGUGCCACGCGUACGCGUGCGCUGAGAAAAUACCCGUCGAACCUGAUCCGGAUAACGCCGGCGAAGGGAUUUGAGGCUCCUUCUCAAGUCCUUUGCCACUCUUUUU
Kind of experiment: smFRET. The following applies: 20 mM MgCl2, 20 mM NaCl; 1 mM and 10 µM TPP.

The test system of experiment [4] is EC-28, Cy3-Cy5 dual-labeled (RNA, riboswitch, azido-uridine analog at 14) GUUCUCAACGGGGUGCCACGCGUACGCG
As to the kind of experiment: smFRET. The following applies: 20 mM MgCl2, 20 mM NaCl; tested at 1 mM TPP.

The subject of experiment [5] is EC-136, Cy3-Cy5 dual-labeled (RNA, riboswitch, azido-uridine analog at 14) GUUCUCAACGGGGUGCCACGCGUACGCGUGCGCUGAGAAAAUACCCGUCGAACCUGAUCCGGAUAACGCCGGCGAAGGGAUUUGAGGCUCCUUCUCAAGUCCUUUGCCACUCUUUUUUGAGGUGCAAAGUGUUAAA
Kind of experiment: smFRET. The following applies: 20 mM MgCl2, 20 mM NaCl; poor folding at 1 mM TPP; none at 10 µM TPP.

Experiment [6] has as its system EC-88 G37C, Cy3-Cy5 dual-labeled (RNA, riboswitch, azido-uridine analog at 14) GUUCUCAACGGGGUGCCACGCGUACGCGUGCGCUGACAAAAUACCCGUCGAACCUGAUCCGGAUAACGCCGGCGAAGGGAUUUGAGGC
As to the kind of experiment: smFRET. The following applies: 20 mM MgCl2, 20 mM NaCl; tested at 1 mM TPP.

Experiment [7] deals with 117-nt transcript without RNAP, Cy3-Cy5 dual-labeled (RNA, riboswitch, azido-uridine analog at 14) GUUCUCAACGGGGUGCCACGCGUACGCGUGCGCUGAGAAAAUACCCGUCGAACCUGAUCCGGAUAACGCCGGCGAAGGGAUUUGAGGCUCCUUCUCAAGUCCUUUGCCACUCUUUUU
Kind of experiment: smFRET. The following applies: 20 mM MgCl2, 20 mM NaCl; tested at 1 mM TPP; no RNAP.

For experiment [8], the system named is EC-88 WT, Cy3-Cy5 dual-labeled (RNA, riboswitch, azido-uridine analog at 14) GUUCUCAACGGGGUGCCACGCGUACGCGUGCGCUGAGAAAAUACCCGUCGAACCUGAUCCGGAUAACGCCGGCGAAGGGAUUUGAGGC
Kind of experiment: smFRET. The following applies: 20 mM MgCl2, 20 mM NaCl; 1 mM TPP.

Take `Cc1ncc(C[n+]2csc(CCOP(=O)(O)OP(=O)(O)O)c2C)c(N)n1`: the binding result was “yes” in experiment [1]; “no” in experiment [2]; “yes” in experiment [3]; “no” in experiment [4]; “weak” in experiment [5]; “no” in experiment [6]. The figures for the binding result in experiment [7] and in experiment [8] were “no” and “yes”, respectively.
